From BigSolDB 2.1

NCC(CC(=O)O)c1ccc(Cl)cc1 (stereo not given)
solubility (mole fraction)
Conditions	in ethanol	in isopropanol	in methanol	in n-propanol	in propylene glycol
293.2 K	3.25e-05	5.77e-05	0.000123	5.6e-05	0.000216
298.2 K	4.17e-05	6.36e-05	0.000131	6.26e-05	0.000271
303.2 K	4.87e-05	7.64e-05	0.00014	6.34e-05	0.000345
308.2 K	5.39e-05	8.09e-05	0.000147	7.82e-05	0.000424
313.2 K	6.09e-05	8.85e-05	0.000173	8.22e-05	0.000485
